Experiments:
[1] = Inhibition of Escherichia coli topoisomerase 4 assessed as relaxation of supercoiled plasmid pBR322 DNA and measured after 30 mins
DNA gyrase = DNA gyrase (Escherichia coli, UniProt P0AES4+P0AES6); experiment: Inhibition of Escherichia coli DNA gyrase supercoiling activity using pBR322 as substrate incubated for 30 mins measured by gel-based assay; type: protein-complex assay
Escherichia coli = experiment: Antibacterial activity against Escherichia coli measured by broth microdilution assay
Staphylococcus aureus = experiment: Antibacterial activity against Staphylococcus aureus measured by broth microdilution assay

Structure (SMILES)	IC50 [1]	IC50 (DNA gyrase)	MIC (Escherichia coli)	MIC (Staphylococcus aureus)
CCOc1cccc(-c2cccc(C(=O)N[C@@H](CN)c3ccccc3)c2)c1F	> 100 µM			
Cl.NCC(NC(=O)c1cccc(-c2cccs2)c1)c1ccc(O)cc1 (configuration not stated)	> 540 µM	0.3 µM	8 µg/mL	8 µg/mL
NC[C@H](NC(=O)c1cccc(-c2ccccc2C(F)(F)F)c1)c1ccccc1	> 100 µM			
COc1ccccc1-c1cccc(C(=O)NC(CN)c2cccc(O)c2)c1 (configuration not stated)	> 100 µM			

From ChEMBL document CHEMBL5104153, “De novo design of type II topoisomerase inhibitors as potential antimicrobial agents targeting a novel binding region” (RSC Med Chem, 2022)
